# Measurements reported in US10336707B2, “Heterocyclic derivatives modulating activity of certain protein kinases” (EUDENDRON S.R.L., priority 2014, dated 2019).
# Read-outs that look alike come from different tables or passages of the source.
# Tests used:
# [1] = molecular target: T1, BaF3 cell line transfected with the oncogenic fusion protein NPM-ALK and expressing the mutation L1196M (Homo sapiens, UniProt Q9UM73, L1196M, cells depend on it); assay: Tritiated thymidine uptake cell proliferation assay, BaF3 NPM-ALK L1196M; format: cell-based, murine; conditions: for GI50: averaged IC50 values of cell proliferation inhibition, class letters, read-out: IC50 BaF3 NPM-ALK L1196M cells; for % Inhibition BaF3 NPM-ALK L1196M cells: percentage of inhibition of cell proliferation at 200 nM
# T1 construct: fused on or other part: P06748 (Nucleophosmin)
# Procedure: (§1) Method: Tritiated Thymidine Uptake Cell Proliferation Assay
# (§2) The following procedure was used with parent untransformed BaF3 cells, BaF3 cells transformed with the oncogenic fusion protein NPM/ALK, NPM/ALK positive SUDHL-1 cells, NPM/ALK positive SUPM2, ALK-negative HL60 cells, NPM/ALK positive KARPAS-299 cells. The parent untransformed BaF3 cells or Alk-negative HL60 cells are used as controls. Cells were seeded in U-bottomed 96-well plates at 10000 cells/well in a volume of 100 μl in supplemented medium. In the case of the parent untransformed BaF3 cells, the medium was supplemented with IL-3. Serial dilutions of inhibitors were added to the appropriate wells and volumes adjusted to 200 μl. Controls were treated with the equivalent volume of vehicle, DMSO, alone. Plates were incubated at 37° C. for 72 h. 3[H]-thymidine (1 μCi/well) was added for the last 16 h of incubation. Cells were harvested on to paper filters and 3[H]-thymidine incorporation was measured using a scintillation counter (1430 MicroBeta, Wallac, Turku, Finland). The 50% inhibitory concentration (IC50) was defined as the concentration of inhibitor, expressed in nanomolar units, that gave a 50% decrease in 3[H]-thymidine uptake compared with controls.
# In Table 2 are listed results for selected examples of compounds of the invention, reported as percentage of inhibition of cell proliferation at 200 nM, obtained from cellular assays in BaF3 cell line transfected with the oncogenic fusion protein NPM-ALK and expressing the mutation L1196M.
# In Table 3 are listed averaged IC50 values of cell proliferation inhibition for selected examples of compounds of the present invention, obtained from cellular assays in BaF3 cell line transfected with the oncogenic fusion protein NPM-ALK and expressing the mutation L1196M. The letter “A” designates an IC50 value between 1 nM and 50 nM, the letter “B” designates an IC50 value between 50 nM and 100 nM, the letter “C” designates an IC50 value between 100 and 500 nM.
# [2] = test system: Karpas 299 lymphoma cell line positive for the oncogenic fusion protein NPM-ALK; assay: Tritiated thymidine uptake cell proliferation assay, Karpas 299; format: cell-based; conditions: Homo sapiens
# Procedure: as §1, §2
# In Table 1 are listed results for selected examples of compounds of the invention, reported as percentage of inhibition of cell proliferation at 200 nM, obtained from cellular assays in Karpas 299 lymphoma cell line positive for the oncogenic fusion protein NPM-ALK.
# [3] = KARPAS-299, percentage of inhibition of cell proliferation at 200 nM, read-out: % Inhibition Karpas 299 cells
# [4] = KARPAS-299, read-out: % Inhibition Karpas 299 cells
# T1 sequence (Q9UM73 whole entry L1196M, the tested form may be a part): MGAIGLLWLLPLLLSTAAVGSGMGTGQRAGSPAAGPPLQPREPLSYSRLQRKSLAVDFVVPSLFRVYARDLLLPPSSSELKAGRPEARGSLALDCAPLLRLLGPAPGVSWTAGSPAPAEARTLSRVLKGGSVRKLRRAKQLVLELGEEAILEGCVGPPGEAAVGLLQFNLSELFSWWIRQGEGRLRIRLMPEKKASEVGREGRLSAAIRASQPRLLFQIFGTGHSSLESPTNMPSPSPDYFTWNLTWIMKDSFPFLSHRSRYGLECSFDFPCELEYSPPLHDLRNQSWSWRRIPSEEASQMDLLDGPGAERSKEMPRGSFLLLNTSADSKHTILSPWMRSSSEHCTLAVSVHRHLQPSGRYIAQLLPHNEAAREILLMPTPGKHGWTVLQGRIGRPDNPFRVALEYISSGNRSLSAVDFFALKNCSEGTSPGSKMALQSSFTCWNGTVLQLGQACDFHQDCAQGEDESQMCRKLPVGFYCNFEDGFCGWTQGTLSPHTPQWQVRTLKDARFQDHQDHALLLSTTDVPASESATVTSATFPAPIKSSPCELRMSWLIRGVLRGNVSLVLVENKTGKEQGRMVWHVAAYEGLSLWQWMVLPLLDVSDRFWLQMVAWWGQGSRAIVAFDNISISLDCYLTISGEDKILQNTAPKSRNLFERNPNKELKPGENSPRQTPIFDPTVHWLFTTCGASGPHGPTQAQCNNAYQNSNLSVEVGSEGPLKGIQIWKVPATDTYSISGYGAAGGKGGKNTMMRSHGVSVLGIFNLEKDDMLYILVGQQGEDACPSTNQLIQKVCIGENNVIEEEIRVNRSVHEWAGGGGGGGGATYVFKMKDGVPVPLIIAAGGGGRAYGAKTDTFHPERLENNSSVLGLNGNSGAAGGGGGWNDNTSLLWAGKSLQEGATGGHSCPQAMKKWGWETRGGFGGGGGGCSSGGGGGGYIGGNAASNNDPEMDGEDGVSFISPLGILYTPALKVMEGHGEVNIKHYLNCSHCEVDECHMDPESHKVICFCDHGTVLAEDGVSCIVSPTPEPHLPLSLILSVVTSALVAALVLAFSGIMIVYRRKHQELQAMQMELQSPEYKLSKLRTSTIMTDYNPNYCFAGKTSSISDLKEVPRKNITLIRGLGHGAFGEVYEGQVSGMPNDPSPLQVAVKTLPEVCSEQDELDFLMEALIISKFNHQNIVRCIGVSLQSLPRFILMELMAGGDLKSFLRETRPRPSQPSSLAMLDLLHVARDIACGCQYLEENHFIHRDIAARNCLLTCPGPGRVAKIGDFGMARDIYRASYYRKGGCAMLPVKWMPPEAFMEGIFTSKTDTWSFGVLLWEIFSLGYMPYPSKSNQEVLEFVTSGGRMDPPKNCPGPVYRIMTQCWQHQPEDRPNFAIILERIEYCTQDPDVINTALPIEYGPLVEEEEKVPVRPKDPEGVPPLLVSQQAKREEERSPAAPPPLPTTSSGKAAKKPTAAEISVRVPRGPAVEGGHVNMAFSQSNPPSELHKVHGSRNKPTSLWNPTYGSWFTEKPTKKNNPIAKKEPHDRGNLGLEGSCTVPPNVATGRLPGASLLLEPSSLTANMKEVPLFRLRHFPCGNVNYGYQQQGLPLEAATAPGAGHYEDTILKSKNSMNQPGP
SMILES,GI50 [1] [nM],% Inhibition BaF3 NPM-ALK L1196M cells [1] [%],"inhibition at 0.2 µM [2, 3] [%]","inhibition at 0.2 µM [2, 4] [%]"
"Cc1cc(O)ccc1-c1cc2[nH]nc(NC(=O)c3ccc(N4CCN(C)CC4)cc3)c2cc1Cc1cc(F)cc(F)c1 [Example 34, N-[5-[(3,5-difluorophenyl)methyl]-6-(4-hydroxy-2-methyl-phenyl)-1H-indazol-3-yl]-4-(4-methylpiperazin-1-yl)benzamide]",1 to 50,100,100,–
"CN1CCN(c2ccc(C(=O)Nc3n[nH]c4cc(-c5ccc6[nH]ncc6c5)c(Cc5cc(F)cc(F)c5)cc34)cc2)CC1 [Example 35, N-[5-[(3,5-difluorophenyl)methyl]-6-(1H-indazol-5-yl)-1H-indazol-3-yl]-4-(4-methylpiperazin-1-yl)benzamide]",50 to 100,96,100,–
"CN1CCN(c2ccc(C(=O)Nc3n[nH]c4cc(-c5ccc(O)cc5)c(Cc5cccc(F)c5)cc34)c(NC3CCOCC3)c2)CC1 [Example 38, N-[5-[(3-fluorophenyl)methyl]-6-(4-hydroxyphenyl)-1H-indazol-3-yl]-4-(4-methylpiperazin-1-yl)-2-(tetrahydropyran-4-ylamino)benzamide]",1 to 50,100,–,100
"COCCNc1cc(N2CCN(C)CC2)ccc1C(=O)Nc1n[nH]c2cc(-c3ccc(O)c(F)c3)c(Cc3cccc(F)c3)cc12 [Example 42, N-[6-(3-fluoro-4-hydroxy-phenyl)-5-[(3-fluorophenyl)methyl]-1H-indazol-3-yl]-2-(2-methoxyethylamino)-4-(4-methylpiperazin-1-yl)benzamide]",50 to 100,93,–,100
